Measurements: ChEMBL document CHEMBL1156476, “Inhibition of mammalian target of rapamycin signaling by 2-(morpholin-1-yl)pyrimido[2,1-alpha]isoquinolin-4-one” (J Biol Chem, 2007)
Activity calls are given as the source filed them. No cut-off for these calls is given here.

How the values were obtained:
[1] = molecular target: RAC-alpha serine/threonine-protein kinase (Mus musculus) (UniProt P31750); assay: Increase in Akt phosphorylation in TSC1-deficient mouse embryo fibroblasts assessed as Ser 473 phosphorylation at 100 nM after 24 hrs by Western blot
[2] = Antiproliferative activity against TSC1-deficient mouse embryo fibroblasts assessed as decrease in cell number at 100 nM after 2 day relative to control; format: functional, Fibroblast; set-up: scale not given: the % may be the effect or the level left
[3] = molecular target: T1, Serine/threonine-protein kinase mTOR (Homo sapiens, UniProt P42345); assay: Inhibition of PDGF-activated mTOR signaling in rat-1 fibroblasts assessed as S6K1 Thr389 site phosphorylation by Western blot
[4] = molecular target: T1, Serine/threonine-protein kinase mTOR; assay: Inhibition of mTOR
[5] = molecular target: T1, Serine/threonine-protein kinase mTOR; assay: Inhibition of PDGF-activated mTOR signaling in rat-1 fibroblasts assessed as Akt Ser473 site phosphorylation by Western blot
[6] = molecular target: DNA-dependent protein kinase catalytic subunit (Homo sapiens, UniProt P78527); assay: Inhibition of DNA-PK
[7] = molecular target: Mitogen-activated protein kinase 14 (Homo sapiens) (UniProt Q16539); assay: Inhibition of MAPK14 at 5 uM
[8] = molecular target: Rho-associated protein kinase 1 (Homo sapiens) (UniProt Q13464); assay: Inhibition of ROCK1 at 5 uM
[9] = molecular target: RAC-alpha serine/threonine-protein kinase (Homo sapiens) (UniProt P31749); assay: Inhibition of AKT1 at 5 uM
[10] = molecular target: Phosphorylase b kinase gamma catalytic chain, liver/testis isoform (Homo sapiens) (UniProt P15735); assay: Inhibition of PHKG2 at 5 uM
[11] = molecular target: T1, Serine/threonine-protein kinase mTOR; assay: Inhibition of mTOR kinase activity in epitope-tagged AU1 immunoprecipitates expressed in human 293F cells at 5 uM by autoradiography; format: cell-based
[12] = molecular target: Casein kinase II subunit alpha (Homo sapiens) (UniProt P68400); assay: Inhibition of CSNK2A1 at 5 uM
[13] = molecular target: Insulin receptor (Homo sapiens) (UniProt P06213); assay: Inhibition of INSR at 5 uM
[14] = molecular target: T1, Serine/threonine-protein kinase mTOR; assay: Inhibition of IGF1-activated mTOR signaling in human M059J glioma cells assessed as Akt Ser473 site phosphorylation at 10 uM by Western blot; format: cell-based
Fibroblast [15] = assay: Induction of apoptosis in TSC1-deficient mouse embryo fibroblasts assessed as level of nucleosomes in cell cytoplasm at 10 uM after 24 hrs; format: functional, cell-based
[16] = molecular target: PI3-kinase p110-alpha/p85-alpha (Homo sapiens, UniProt P42336); assay: Inhibition of p110alpha/p85-alpha PI3K; format: protein-complex assay
[17] = molecular target: Protein kinase C beta type (Homo sapiens) (UniProt P05771); assay: Inhibition of PRKCB1 at 5 uM
[18] = molecular target: Mitogen-activated protein kinase 3 (Homo sapiens) (UniProt P27361); assay: Inhibition of MAPK3 at 5 uM
[19] = molecular target: Mast/stem cell growth factor receptor Kit (Homo sapiens) (UniProt P10721); assay: Inhibition of KIT at 5 uM
[20] = molecular target: Aurora kinase A (Homo sapiens) (UniProt O14965); assay: Inhibition of STK6 at 5 uM
[21] = molecular target: Epidermal growth factor receptor (Homo sapiens) (UniProt P00533); assay: Inhibition of EGFR at 5 uM
[22] = molecular target: Receptor-type tyrosine-protein kinase FLT3 (Homo sapiens) (UniProt P36888); assay: Inhibition of FLT3 at 5 uM
[23] = molecular target: Ribosomal protein S6 kinase alpha-3 (Homo sapiens) (UniProt P51812); assay: Inhibition of RPS6KA3 at 5 uM
[24] = molecular target: Ribosomal protein S6 kinase beta-1 (Mus musculus) (UniProt Q8BSK8); assay: Blockade of S6K1 phosphorylation in TSC1-deficient mouse embryo fibroblasts assessed as Thr389 phosphorylation at 10 uM after 24 hrs by Western blot
[25] = molecular target: Glycogen synthase kinase-3 beta (Homo sapiens) (UniProt P49841); assay: Inhibition of GSK3B at 5 uM
Fibroblast [26] = assay: Antiproliferative activity against TSC1-deficient mouse embryo fibroblasts assessed as decrease in cell number; format: functional, cell-based
[27] = Antiproliferative activity against TSC1-deficient mouse embryo fibroblasts assessed as decrease in cell number at 10 uM after 2 day relative to control; format: functional, Fibroblast; set-up: scale not given: the % may be the effect or the level left
[28] = molecular target: Tyrosine-protein kinase ABL1 (Homo sapiens) (UniProt P00519); assay: Inhibition of ABL1 at 5 uM
[29] = molecular target: T1, Serine/threonine-protein kinase mTOR; assay: Inhibition of PDGF-activated mTOR signaling in rat-1 fibroblasts assessed as Akt Ser473 site phosphorylation at 10 uM by Western blot
[30] = molecular target: Tyrosine-protein kinase SYK (Homo sapiens) (UniProt P43405); assay: Inhibition of SYK at 5 uM
[31] = molecular target: Tyrosine-protein kinase Lck (Homo sapiens) (UniProt P06239); assay: Inhibition of LCK at 5 uM
[32] = test system: RAC-alpha serine/threonine-protein kinase (Homo sapiens), P31749 [S473D]; assay: Inhibition of Akt S473D mutant transfected in african green monkey COS7 cells assessed as insulin-induced […] phosphorylation by Western blot; format: cell-based; settings: COS-7
[33] = molecular target: Tyrosine-protein kinase JAK3 (Homo sapiens) (UniProt P52333); assay: Inhibition of JAK3 at 5 uM
[34] = molecular target: Fibroblast growth factor receptor 1 (Homo sapiens) (UniProt P11362); assay: Inhibition of FGFR1 at 5 uM
[35] = molecular target: Serine/threonine-protein kinase pim-1 (Homo sapiens) (UniProt P11309); assay: Inhibition of PIM1 at 5 uM
[36] = molecular target: Receptor tyrosine-protein kinase erbB-2 (Homo sapiens) (UniProt P04626); assay: Inhibition of ERBB2 at 5 uM
[37] = molecular target: T1, Serine/threonine-protein kinase mTOR; assay: Inhibition of PDGF-activated mTOR signaling in rat-1 fibroblasts assessed as S6K1 Thr389 site phosphorylation at 10 uM by Western blot
[38] = molecular target: Interleukin-1 receptor-associated kinase 4 (Homo sapiens) (UniProt Q9NWZ3); assay: Inhibition of IRAK4 at 5 uM
[39] = molecular target: Angiopoietin-1 receptor (Homo sapiens) (UniProt Q02763); assay: Inhibition of TEK at 5 uM
[40] = Inhibition of PDGFR in rat-1 cells assessed as PDGF-induced Erk phosphorylation by Western blot; format: cell-based
[41] = molecular target: Phosphatidylinositol 4,5-bisphosphate 3-kinase catalytic subunit alpha isoform (Homo sapiens) (UniProt P42336); assay: Inhibition of p110-alpha PI3K assessed as p85alpha autophosphorylation at 25 uM by autoradiography
[42] = molecular target: Vascular endothelial growth factor receptor 2 (Homo sapiens) (UniProt P35968); assay: Inhibition of KDR at 5 uM
Fibroblast [43] = assay: Induction of apoptosis in TSC1-deficient mouse embryo fibroblasts assessed as level of nucleosomes in cell cytoplasm at 100 nM after 24 hrs; format: functional, cell-based
[44] = molecular target: Hepatocyte growth factor receptor (Homo sapiens) (UniProt P08581); assay: Inhibition of MET at 5 uM
[45] = molecular target: T1, Serine/threonine-protein kinase mTOR; assay: Inhibition of IGF1-activated mTOR signaling in human M059J glioma cells assessed as S6K1 Thr389 site phosphorylation at 10 uM by Western blot; format: cell-based
[46] = molecular target: Serine/threonine-protein kinase Chk1 (Homo sapiens) (UniProt O14757); assay: Inhibition of CHEK1 at 5 uM
COS-7 = assay: Inhibition of Akt T308D mutant transfected in african green monkey COS7 cells assessed as insulin-induced […] phosphorylation by Western blot; format: cell-based
[47] = Antiproliferative activity against TSC1-deficient mouse embryo fibroblasts assessed as decrease in cell number at 10 uM after 1 day relative to control; format: functional, Fibroblast; set-up: scale not given: the % may be the effect or the level left
[48] = molecular target: Platelet-derived growth factor receptor beta (Homo sapiens) (UniProt P09619); assay: Inhibition of PDGFRbeta at 5 uM
[49] = molecular target: Proto-oncogene tyrosine-protein kinase receptor Ret (Homo sapiens) (UniProt P07949); assay: Inhibition of RET at 5 uM
[50] = molecular target: Cyclin-dependent kinase 1/cyclin B1 (Homo sapiens) (UniProt P06493+P14635); assay: Inhibition of CDK1/Cyclin B at 5 uM; format: protein-complex assay
[51] = molecular target: MAP kinase-activated protein kinase 2 (Homo sapiens) (UniProt P49137); assay: Inhibition of MAPKAPK2 at 5 uM
[52] = molecular target: Mitogen-activated protein kinase kinase kinase kinase 4 (Homo sapiens) (UniProt O95819); assay: Inhibition of MAP4K4 at 5 uM
[53] = molecular target: T1, Serine/threonine-protein kinase mTOR; assay: Inhibition of mTOR kinase activity in raptor immunoprecipitates expressed in human 293F cells at 10 uM by autoradiography; format: cell-based
[54] = molecular target: Alpha-1A adrenergic receptor (Homo sapiens) (UniProt P35348); assay: Inhibition of phenylephrine-induced human adrenergic alpha1A receptor activity expressed in rat-1 fibroblasts assessed as S6K1 Thr389 site phosphorylation by Western blot
[55] = molecular target: Casein kinase I isoform gamma-2 (Homo sapiens) (UniProt P78368); assay: Inhibition of CSNK1G2 at 5 uM
[56] = molecular target: Dual specificity mitogen-activated protein kinase kinase 1 (Homo sapiens) (UniProt Q02750); assay: Inhibition of MAP2K1 at 5 uM
[57] = molecular target: Ribosomal protein S6 kinase beta-1 (Mus musculus) (UniProt Q8BSK8); assay: Blockade of S6K1 phosphorylation in TSC1-deficient mouse embryo fibroblasts assessed as Thr389 phosphorylation at 100 nM after 24 hrs by Western blot
[58] = molecular target: Insulin-like growth factor 1 receptor (Homo sapiens) (UniProt P08069); assay: Inhibition of IGF1R at 5 uM
[59] = molecular target: Tyrosine-protein kinase BTK (Homo sapiens) (UniProt Q06187); assay: Inhibition of BTK at 5 uM
[60] = molecular target: Dual specificity tyrosine-phosphorylation-regulated kinase 3 (Homo sapiens) (UniProt O43781); assay: Inhibition of DYRK3 at 5 uM

Ribosomal protein S6 kinase beta-1 (Mus musculus), sequence (Q8BSK8 whole entry): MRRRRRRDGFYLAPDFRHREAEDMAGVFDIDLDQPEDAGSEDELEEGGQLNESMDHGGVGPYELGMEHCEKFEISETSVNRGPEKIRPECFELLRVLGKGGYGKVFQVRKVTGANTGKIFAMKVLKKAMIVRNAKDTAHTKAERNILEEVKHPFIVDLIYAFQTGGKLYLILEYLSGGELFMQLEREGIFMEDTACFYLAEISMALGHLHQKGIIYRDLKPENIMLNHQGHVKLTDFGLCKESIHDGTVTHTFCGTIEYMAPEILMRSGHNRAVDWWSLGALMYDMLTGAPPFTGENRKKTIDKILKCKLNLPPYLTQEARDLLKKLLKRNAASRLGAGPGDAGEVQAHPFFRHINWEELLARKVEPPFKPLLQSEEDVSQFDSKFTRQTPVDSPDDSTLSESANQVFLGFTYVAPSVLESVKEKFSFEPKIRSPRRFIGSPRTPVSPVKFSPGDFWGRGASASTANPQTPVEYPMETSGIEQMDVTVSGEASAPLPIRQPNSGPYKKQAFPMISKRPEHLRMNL
Receptor tyrosine-protein kinase erbB-2 (Homo sapiens), sequence (P04626 whole entry): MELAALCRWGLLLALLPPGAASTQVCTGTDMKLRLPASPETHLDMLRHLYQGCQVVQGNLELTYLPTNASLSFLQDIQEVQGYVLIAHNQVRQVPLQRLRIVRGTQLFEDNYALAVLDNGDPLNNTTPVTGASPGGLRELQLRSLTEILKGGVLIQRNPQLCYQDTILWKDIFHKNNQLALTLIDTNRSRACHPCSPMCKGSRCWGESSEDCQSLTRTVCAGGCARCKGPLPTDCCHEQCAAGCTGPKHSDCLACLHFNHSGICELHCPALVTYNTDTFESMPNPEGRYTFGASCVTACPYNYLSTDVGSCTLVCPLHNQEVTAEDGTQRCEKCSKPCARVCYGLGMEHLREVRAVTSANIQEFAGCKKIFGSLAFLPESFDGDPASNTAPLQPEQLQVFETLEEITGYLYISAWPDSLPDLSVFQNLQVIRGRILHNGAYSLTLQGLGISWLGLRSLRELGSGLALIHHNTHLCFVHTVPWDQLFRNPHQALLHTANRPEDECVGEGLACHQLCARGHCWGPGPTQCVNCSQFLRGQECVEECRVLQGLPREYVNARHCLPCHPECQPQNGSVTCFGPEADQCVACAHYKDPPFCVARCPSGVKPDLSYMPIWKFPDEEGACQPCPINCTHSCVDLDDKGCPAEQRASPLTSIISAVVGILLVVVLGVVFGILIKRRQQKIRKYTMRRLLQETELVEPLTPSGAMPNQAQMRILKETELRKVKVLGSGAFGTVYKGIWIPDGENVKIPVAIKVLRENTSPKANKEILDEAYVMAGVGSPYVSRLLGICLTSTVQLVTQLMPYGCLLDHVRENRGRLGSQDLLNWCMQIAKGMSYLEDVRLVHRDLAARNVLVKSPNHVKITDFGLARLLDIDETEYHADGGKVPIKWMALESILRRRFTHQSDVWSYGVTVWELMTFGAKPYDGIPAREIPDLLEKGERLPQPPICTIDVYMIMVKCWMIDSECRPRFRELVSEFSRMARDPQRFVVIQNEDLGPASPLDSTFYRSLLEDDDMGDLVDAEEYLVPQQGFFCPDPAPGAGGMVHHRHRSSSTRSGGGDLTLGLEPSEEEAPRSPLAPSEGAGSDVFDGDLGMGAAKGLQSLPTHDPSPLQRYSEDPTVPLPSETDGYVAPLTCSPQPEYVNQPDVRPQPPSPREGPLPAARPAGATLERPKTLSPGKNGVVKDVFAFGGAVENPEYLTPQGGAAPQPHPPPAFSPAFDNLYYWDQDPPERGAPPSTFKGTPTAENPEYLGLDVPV
Tyrosine-protein kinase JAK3 (Homo sapiens), sequence (P52333 whole entry): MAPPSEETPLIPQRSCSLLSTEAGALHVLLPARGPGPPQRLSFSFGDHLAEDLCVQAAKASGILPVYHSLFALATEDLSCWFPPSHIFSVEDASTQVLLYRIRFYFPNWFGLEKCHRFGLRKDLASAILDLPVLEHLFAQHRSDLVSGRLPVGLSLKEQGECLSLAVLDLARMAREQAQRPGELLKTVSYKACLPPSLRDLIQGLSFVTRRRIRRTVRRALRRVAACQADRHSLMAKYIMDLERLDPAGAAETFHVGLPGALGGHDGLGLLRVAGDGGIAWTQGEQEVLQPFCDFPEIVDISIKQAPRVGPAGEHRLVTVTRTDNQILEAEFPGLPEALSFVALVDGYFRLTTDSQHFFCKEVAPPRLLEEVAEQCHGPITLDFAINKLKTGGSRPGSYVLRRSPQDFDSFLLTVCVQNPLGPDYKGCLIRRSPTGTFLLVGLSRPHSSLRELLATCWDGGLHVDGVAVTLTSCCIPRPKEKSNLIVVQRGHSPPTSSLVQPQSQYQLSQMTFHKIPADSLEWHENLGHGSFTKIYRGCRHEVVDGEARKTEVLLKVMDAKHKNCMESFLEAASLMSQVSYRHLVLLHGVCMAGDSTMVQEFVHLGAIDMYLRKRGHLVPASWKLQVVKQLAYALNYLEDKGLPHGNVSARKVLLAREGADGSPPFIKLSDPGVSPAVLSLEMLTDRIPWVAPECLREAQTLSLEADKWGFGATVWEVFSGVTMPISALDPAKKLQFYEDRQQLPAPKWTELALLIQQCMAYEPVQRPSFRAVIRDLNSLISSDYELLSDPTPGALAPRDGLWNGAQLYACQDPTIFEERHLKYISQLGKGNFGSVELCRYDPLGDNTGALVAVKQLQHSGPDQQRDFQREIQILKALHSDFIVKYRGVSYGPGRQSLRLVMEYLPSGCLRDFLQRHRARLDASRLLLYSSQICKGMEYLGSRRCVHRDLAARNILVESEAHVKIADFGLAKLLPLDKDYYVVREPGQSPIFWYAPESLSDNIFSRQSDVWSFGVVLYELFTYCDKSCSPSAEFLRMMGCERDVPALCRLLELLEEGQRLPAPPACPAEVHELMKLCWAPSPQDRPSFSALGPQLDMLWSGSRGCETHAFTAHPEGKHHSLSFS
Cyclin-dependent kinase 1/cyclin B1 (Homo sapiens), sequence (P06493 whole entry, looked up): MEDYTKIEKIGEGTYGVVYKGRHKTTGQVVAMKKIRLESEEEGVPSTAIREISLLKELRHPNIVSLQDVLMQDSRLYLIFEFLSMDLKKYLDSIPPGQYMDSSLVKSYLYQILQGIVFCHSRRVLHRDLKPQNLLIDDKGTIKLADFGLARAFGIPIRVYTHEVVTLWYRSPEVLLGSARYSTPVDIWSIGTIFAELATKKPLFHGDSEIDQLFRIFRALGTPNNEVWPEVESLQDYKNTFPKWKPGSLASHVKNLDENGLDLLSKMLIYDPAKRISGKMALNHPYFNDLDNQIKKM
Cyclin-dependent kinase 1/cyclin B1 (Homo sapiens), sequence (P14635 whole entry, looked up): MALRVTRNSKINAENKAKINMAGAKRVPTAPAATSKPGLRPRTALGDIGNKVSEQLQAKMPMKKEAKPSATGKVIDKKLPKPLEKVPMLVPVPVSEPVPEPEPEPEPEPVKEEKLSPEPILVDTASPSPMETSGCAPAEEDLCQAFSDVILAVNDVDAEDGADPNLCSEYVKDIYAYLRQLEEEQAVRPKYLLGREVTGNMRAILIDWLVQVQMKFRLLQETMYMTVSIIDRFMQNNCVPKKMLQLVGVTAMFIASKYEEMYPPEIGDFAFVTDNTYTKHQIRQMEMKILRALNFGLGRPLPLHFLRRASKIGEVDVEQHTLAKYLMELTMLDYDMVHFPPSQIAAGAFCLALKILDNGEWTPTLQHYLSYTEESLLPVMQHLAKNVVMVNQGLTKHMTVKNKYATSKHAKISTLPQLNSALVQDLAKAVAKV
RAC-alpha serine/threonine-protein kinase (Mus musculus), sequence (P31750 whole entry): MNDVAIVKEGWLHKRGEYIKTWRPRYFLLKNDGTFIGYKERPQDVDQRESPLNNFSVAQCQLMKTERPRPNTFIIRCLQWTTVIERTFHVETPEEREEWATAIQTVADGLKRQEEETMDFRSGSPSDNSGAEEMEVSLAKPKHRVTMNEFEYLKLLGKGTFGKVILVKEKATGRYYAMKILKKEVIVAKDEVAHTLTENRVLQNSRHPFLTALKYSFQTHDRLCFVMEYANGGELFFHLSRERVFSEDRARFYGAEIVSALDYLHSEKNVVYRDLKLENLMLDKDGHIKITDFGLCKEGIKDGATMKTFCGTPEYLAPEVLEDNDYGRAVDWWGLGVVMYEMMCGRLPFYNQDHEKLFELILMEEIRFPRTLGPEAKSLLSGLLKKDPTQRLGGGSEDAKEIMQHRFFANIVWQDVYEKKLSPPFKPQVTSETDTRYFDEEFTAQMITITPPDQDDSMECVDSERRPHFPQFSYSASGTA
Ribosomal protein S6 kinase alpha-3 (Homo sapiens), sequence (P51812 whole entry): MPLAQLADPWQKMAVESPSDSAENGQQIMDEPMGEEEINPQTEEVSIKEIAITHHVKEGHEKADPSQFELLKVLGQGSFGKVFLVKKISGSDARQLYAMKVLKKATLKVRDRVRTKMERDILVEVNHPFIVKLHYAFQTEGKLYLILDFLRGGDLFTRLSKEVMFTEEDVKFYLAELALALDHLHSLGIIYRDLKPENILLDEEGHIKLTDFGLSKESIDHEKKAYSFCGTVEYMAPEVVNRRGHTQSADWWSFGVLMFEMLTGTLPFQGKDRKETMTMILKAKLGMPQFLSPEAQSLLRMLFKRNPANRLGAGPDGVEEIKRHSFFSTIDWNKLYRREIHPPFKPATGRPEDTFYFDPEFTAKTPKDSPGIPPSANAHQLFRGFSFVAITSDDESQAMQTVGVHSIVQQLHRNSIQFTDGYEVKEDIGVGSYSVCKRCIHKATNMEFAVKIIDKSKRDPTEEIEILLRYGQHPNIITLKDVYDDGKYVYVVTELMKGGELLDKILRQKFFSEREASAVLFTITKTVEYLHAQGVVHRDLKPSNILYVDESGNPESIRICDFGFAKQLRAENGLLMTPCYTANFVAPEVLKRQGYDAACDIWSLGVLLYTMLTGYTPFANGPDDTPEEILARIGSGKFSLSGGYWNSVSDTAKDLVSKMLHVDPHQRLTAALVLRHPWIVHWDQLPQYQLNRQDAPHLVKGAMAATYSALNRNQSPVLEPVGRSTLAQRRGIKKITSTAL

For CO[C@H]1C[C@@H]2CC[C@@H](C)[C@@](O)(O2)C(=O)C(=O)N2CCCC[C@H]2C(=O)O[C@H]([C@H](C)C[C@@H]2CC[C@@H](O)[C@H](OC)C2)CC(=O)[C@H](C)/C=C(\C)[C@@H](O)[C@@H](OC)C(=O)[C@H](C)C[C@H](C)/C=C/C=C/C=C/1C [SIROLIMUS], the Activity [1] was “Active” and the Activity [2] was 57%.

In the case of O=c1cc(N2CCOCC2)oc2c(-c3ccccc3)cccc12 [LY-294002], the Activity [3] is reported as “Active”, the IC50 [4] is reported as 5 µM and the Activity [5] is reported as “Active”.

Molecule O=C(c1ccccc1)c1ccc(N2CCOCC2)cc1O has an IC50 [4] of over 100 µM and an IC50 [6] of 0.27 µM.

In the case of O=c1cc(N2CCOCC2)nc2c3ccccc3ccn12, the inhibition [7] is reported as 17%, the inhibition [8] is reported as 13% and the inhibition [9] is reported as 5%. The inhibition [10] was -6%, the inhibition [11] was 67% and the inhibition [12] was 3%. For the same molecule, the inhibition [13] was -3%, the Activity [14] was “Active” and the Activity (Fibroblast [15]) was “Active”. It also gave an IC50 [16] of over 100 µM, an inhibition [17] of 8% and an inhibition [18] of -3%. The inhibition [19] was 13%, the inhibition [20] was 44% and the inhibition [21] was -3%. For the same molecule, the inhibition [22] was 36%, the inhibition [23] was 7% and the Activity [24] was “Active”. For the same molecule, the inhibition [25] was 0%, the Activity (Fibroblast [26]) was “Dose-dependent effect” and the Activity [27] was 84%. For the same molecule, the inhibition [28] was -5%, the Activity [29] was “Active” and the inhibition [30] was 14%. For the same molecule, the inhibition [31] was -3%, the Activity [32] was “Active” and the inhibition [33] was 2%. For the same molecule, the inhibition [34] was 0%, the inhibition [35] was 44% and the inhibition [36] was 3%. The Activity [37] was “Active”, the inhibition [38] was -5% and the inhibition [39] was 12%. The Activity [40] was “inactive”, the Activity [41] was “inactive” and the inhibition [42] was 0%. For the same molecule, the Activity (Fibroblast [43]) was “inactive”, the inhibition [44] was 19% and the Activity [45] was “Active”. The inhibition [46] was -9%, the Activity (COS-7) was “inactive” and the Activity [47] was 54%. The inhibition [48] was -4%, the inhibition [49] was -4% and the inhibition [50] was 3%. It also gave an inhibition [51] of 40%, an inhibition [52] of 3% and an inhibition [53] of 78%. The Activity [54] was “Active”, the inhibition [55] was 2% and the inhibition [56] was -8%. The Activity [57] was “Active”, the inhibition [58] was -8% and the inhibition [59] was 9%. It also gave an inhibition [60] of 5%.
